Assay results taken from patent US7811819B2, “Cryopreservation of primate embryonic stem cells” (The University of Washington, priority 2005, dated 2010).

Assays:
[1] = test system: H1 hESC; assay: Survival of hESC after slow, controlled-rate freezing and thaw (colony number and colony size relative to untreated control); assay type: cell-based, human; conditions: sucrose on thaw (cryoprotectant removal); concentration not given
Procedure: (§1) hESC culture. H1 hESC from passage 51 to 57 (WiCell, Madison, Wis., USA) were cultured in Knockout™ DMEM supplemented with GlutaMAX™ (2 mM), sodium pyruvate (1.0 mM), non-essential amino acids (0.1 mM), penicillin (50 u/ml), streptomycin (50 u/ml), Knockout™ serum replacer (15%) (all from Invitrogen, Carlsbad, Calif., USA) and β-mercaptoethanol (0.1 mM; Sigma, St. Louis, Mo., USA). hESC were grown on gelatinized tissue culture plates seeded with primary mouse embryonic fibroblasts that had been exposed to 3000 Rads γ-irradiation. To passage, cells were washed once with calcium and magnesium free phosphate buffered saline (PBS; Invitrogen, Carlsbad, Calif., USA) and then exposed to 1.2 u/ml dispase (Invitrogen, Carlsbad, Calif., USA) dissolved in PBS supplemented with 10% FBS until colonies began to lift from the plate. The cell layer was washed off the plate and mechanically dispersed using a plugged 9-inch Pasteur pipette or a 5 ml pipette. At this point, cells were divided into tubes for each group. The cells were then pelleted through centrifugation at 1200 rpm for 3 minutes, washed and pelleted again in culture medium (described above). […]
(§2) Calculation of Survival. Survival was calculated as combined colony number and colony size relative to Group 1, which was set at 100% survival. The horizontal diameters of 10 colonies were measured. […]

[2] = test system: H1 hESC; assay: Toxicity of the DMSO cryoprotectant to hESC without freezing (Group 2 vs control Group 1); assay type: cell-based, human; conditions: DMSO 10% in freezing medium, straws held 20 minutes at room temperature, not frozen; Group 1 vs. 2; cells grown three days
Procedure: as §1, §2

SMILES | effect on survival following thaw [1] | toxicity to the hESC [2]
OC[C@H]1O[C@@](CO)(O[C@H]2O[C@H](CO)[C@@H](O)[C@H](O)[C@H]2O)[C@@H](O)[C@@H]1O [Sucrose] | harmful to survival | –
C[S+](C)[O-] [DMSO] | – | does not appear toxic
